Where a SMILES comes first, the peptide text is derived from it. [ ]: non-standard residue; d: D form. The star is where a group is joined. Dnp = O=[N+]([O-])c1ccc(*)c([N+](=O)[O-])c1; Mca = COc1ccc2c(CC(=O)*)cc(=O)oc2c1; Nva = CCC[C@H](N)C(=O)O
What was measured:
MMP-1 [1] = biological target: T1, MMP-1 (Homo sapiens, UniProt P03956); test: Fluorometric hydrolysis of synthetic Mca/Lys(Dnp) substrates by MMP-1; type: biochemical; parameters: made in house; host or cells: native secreted protein purified from culture medium of human rheumatoid synovial cells
T1 sequence (P03956 100-469): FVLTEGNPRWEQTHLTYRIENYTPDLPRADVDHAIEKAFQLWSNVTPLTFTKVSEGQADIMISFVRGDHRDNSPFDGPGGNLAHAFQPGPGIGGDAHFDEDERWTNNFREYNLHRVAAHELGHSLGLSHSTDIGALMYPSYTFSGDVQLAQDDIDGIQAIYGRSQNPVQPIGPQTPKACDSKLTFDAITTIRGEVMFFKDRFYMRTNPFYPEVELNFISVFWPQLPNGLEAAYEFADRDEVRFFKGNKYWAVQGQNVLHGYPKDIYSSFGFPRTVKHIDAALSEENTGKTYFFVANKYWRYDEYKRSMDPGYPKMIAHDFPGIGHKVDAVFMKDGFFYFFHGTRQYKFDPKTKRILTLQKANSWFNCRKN
From the text: (§1) All MMPs were purified in zymogen form. ProMMP-1 (Suzuki et al., Biochem., 29, 10261 (1990)), proMMP-2 (Okada et al., Eur. J. Biochem., 194, 721 (1990)), and proMMP-3 (Ito et al., Arch. Biochem. Biophys., 267, 211 (1988)) were purified from the culture medium of human rheumatoid synovial cells stimulated with rabbit macrophage-conditioned medium. ProMMP-9 was purified from the culture medium of HT-1080 cells as described in Morodomi et al., Biochem. J., 285, 603 (1992). ProMMP-2 and proMMP-9 were activated by reacting with 1 mM 4-aminophenylmercuric acetate at 37° C. for 45 minutes and 32 hours, respectively. ProMMP-1 was activated by reacting with 1 mM 4-aminophenylmercuric acetate and an equimolar amount of MMP-3 at 37° C. for 6 hours. After activation, MMP-3 was completely removed from MMP-1 by affinity chromatography using an anti-MMP-3 IgG Affi-Gel 10 column. The resin, Affi-Gel 10 (Biorad, Emoryville, Calif.), was coupled to anti-MMP-3 IgG (Okada et al., Annals of Rheumat. Dis., 48, 645 (1989)) per the manufacturer's protocol. Pro-MMP-3 was activated by reacting with 5 μg/mL chymotrypsin at 37° C. for 2 hours. Chymotrypsin was inactivated with 2 mM diisopropylfluorophosphate. The amounts of active MMP-1, MMP-2, and MMP-3 were determined by titration with tissue inhibitor of metalloproteinase-1(TIMP1) over a concentration range of 0.1-3 μg/mL, while the amount of active MMP-9 was determined by titration with TIMP-2 (0.1-3 μg/mL). TIMP-1 was isolated from the medium of HT-1080 cells as described in Morodomi et al., Biochem J., 285, 603 (1992).
(§2) Substrates were prepared as 10 mM stock solutions in dimethylsulfoxide (DMSO). Fluorescent assays were performed at λex =325 nm and λem =393 nm, which should encounter no interference from Trp residues, using a Hitachi fluorescence spectrophotometer F-3010. Initial total hydrolysis assays were run at a substrate concentration of […] to avoid filtering effects. The change in fluorescence at this concentration was 110 based on total hydrolysis of 1 μM substrate. A typical assay was carried out by incubating 100 μL of various concentrations of a substrate with 10 μL of an enzyme solution (2-20 nM) in 50 mM Tris-HCl, pH 7.5, 0.15M NaCl, 10 mM CaCl2, 0.05% Brij 35, 0.02% NaN3. The reaction was stopped by addition of 900 μl of 3% (v/v) glacial acetic acid. MMP-3 activity at pH 6.0 was measured in 50 mM sodium acetate buffer, pH 6.0, instead of Tris-HCl buffer. The amount of substrate hydrolysis was calculated based on the fluorescence values of the Mca-Arg-Pro-Lys-Pro-Gln standard solution after substraction of the reaction blank value (stopping solution added before the enzyme). Individual kinetic parameters (kcat and KM) were determined over a substrate concentration range of 2.5-75 μM and calculated by double reciprocal plots.

MMP-2 [2] = biological target: T2, MMP-2 (Homo sapiens, UniProt P08253); test: Fluorometric hydrolysis of synthetic Mca/Lys(Dnp) substrates by MMP-2; type: biochemical; parameters: made in house; host or cells: native secreted protein purified from culture medium of human rheumatoid synovial cells
T2 sequence (P08253 110-660): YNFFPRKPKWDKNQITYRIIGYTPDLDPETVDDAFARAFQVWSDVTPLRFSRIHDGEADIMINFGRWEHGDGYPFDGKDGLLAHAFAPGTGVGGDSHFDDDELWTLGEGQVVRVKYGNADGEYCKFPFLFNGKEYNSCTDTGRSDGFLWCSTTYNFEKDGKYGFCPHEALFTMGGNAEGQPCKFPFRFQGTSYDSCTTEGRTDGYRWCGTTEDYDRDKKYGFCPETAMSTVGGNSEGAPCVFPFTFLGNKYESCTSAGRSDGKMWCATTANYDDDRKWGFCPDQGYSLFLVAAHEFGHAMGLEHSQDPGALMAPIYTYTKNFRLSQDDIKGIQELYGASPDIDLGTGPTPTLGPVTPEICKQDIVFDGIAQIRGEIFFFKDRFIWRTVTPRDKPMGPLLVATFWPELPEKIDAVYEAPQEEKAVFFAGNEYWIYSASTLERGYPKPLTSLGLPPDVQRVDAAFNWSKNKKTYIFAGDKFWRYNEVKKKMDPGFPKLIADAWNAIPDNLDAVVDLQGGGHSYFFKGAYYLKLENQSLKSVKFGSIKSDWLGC
From the text: as §1, §2

MMP-9 [3] = biological target: T3, MMP-9 (Homo sapiens, UniProt P14780); test: Fluorometric hydrolysis of synthetic Mca/Lys(Dnp) substrates by MMP-9; type: biochemical; parameters: made in house; host or cells: native secreted protein purified from culture medium of HT-1080 cells; details: Edman degradation analysis after 36-72 hour treatment of substrate with MMP
Target sequence in this assay (P14780 107-707 limits assumed): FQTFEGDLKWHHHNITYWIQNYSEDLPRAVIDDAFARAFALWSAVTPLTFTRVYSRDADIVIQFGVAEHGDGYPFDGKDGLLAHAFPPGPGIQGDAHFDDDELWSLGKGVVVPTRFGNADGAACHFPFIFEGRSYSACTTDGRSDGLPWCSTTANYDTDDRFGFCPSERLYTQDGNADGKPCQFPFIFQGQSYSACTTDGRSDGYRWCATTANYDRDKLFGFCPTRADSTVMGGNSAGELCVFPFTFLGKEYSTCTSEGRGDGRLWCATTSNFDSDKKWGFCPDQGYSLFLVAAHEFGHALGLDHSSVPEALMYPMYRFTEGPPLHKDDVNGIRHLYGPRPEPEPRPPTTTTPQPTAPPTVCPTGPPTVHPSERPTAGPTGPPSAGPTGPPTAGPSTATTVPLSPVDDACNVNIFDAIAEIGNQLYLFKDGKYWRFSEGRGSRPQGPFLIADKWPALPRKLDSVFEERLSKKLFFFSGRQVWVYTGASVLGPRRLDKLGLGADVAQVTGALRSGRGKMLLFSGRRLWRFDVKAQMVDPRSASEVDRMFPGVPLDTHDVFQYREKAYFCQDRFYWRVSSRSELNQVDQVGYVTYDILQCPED

MMP-9 [4] = biological target: T3, MMP-9; test: as above; type: biochemical; parameters: made in house; host or cells: native secreted protein purified from culture medium of HT-1080 cells
From the text: as §1, §2
Target sequence in this assay (P14780 107-707 limits assumed): as above

MMP-3 [5] = biological target: T4, MMP-3 (Homo sapiens, UniProt P08254); test: Fluorometric hydrolysis of synthetic Mca/Lys(Dnp) substrates by MMP-3; type: biochemical; parameters: made in house; host or cells: native secreted protein purified from culture medium of human rheumatoid synovial cells; details: Edman degradation analysis after 36-72 hour treatment of substrate with MMP
Target sequence in this assay (P08254 100-477): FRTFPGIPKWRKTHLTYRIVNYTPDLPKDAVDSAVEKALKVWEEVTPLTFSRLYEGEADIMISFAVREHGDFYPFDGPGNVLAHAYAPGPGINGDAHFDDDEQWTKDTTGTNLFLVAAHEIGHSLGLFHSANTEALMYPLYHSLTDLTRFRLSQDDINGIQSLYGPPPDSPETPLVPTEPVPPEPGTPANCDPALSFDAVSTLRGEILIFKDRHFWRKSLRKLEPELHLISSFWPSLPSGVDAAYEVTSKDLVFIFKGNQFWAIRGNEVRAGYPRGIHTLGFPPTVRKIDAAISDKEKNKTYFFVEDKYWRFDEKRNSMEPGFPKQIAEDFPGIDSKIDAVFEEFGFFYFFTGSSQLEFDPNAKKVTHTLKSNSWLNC

Solubility of substrate = type: physicochemical; details: 2.5% DMSO in water; read-out: soluble up to a concentration
MMP-3 [6] = biological target: T4, MMP-3; test: Fluorometric hydrolysis of synthetic Mca/Lys(Dnp) substrates by MMP-3; type: biochemical; parameters: made in house; host or cells: native secreted protein purified from culture medium of human rheumatoid synovial cells; details: for kcat /Km: pH 7.5
From the text: as §1, §2
Target sequence in this assay (P08254 100-477): as above

MMP-1 [7] = biological target: T1, MMP-1; details: background, literature; cited from earlier work
MMP-9 [8] = biological target: T3, MMP-9; details: background, literature; cited from earlier work
Target sequence in this assay (P14780 94-707, species assumed): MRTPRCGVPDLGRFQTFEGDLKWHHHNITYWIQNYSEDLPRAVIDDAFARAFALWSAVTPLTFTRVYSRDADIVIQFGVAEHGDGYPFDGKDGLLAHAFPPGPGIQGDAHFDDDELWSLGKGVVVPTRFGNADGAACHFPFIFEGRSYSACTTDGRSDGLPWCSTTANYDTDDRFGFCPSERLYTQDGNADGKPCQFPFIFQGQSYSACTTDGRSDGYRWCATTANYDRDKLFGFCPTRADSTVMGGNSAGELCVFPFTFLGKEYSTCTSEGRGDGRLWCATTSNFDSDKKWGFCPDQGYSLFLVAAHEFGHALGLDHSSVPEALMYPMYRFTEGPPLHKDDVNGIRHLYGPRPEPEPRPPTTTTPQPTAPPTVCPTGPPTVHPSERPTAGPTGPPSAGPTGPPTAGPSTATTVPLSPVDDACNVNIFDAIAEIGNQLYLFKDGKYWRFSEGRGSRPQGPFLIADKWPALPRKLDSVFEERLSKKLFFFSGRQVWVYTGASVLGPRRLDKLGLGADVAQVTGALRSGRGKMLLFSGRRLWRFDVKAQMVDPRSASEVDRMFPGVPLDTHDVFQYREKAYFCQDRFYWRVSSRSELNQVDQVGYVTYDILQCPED

MMP-2 [9] = biological target: T2, MMP-2; details: background, literature; cited from earlier work
MMP-3 [10] = biological target: T4, MMP-3; details: cited from earlier work; for kcat Km: MMP-3, assay at 37° C.; for hydrolyzed by MMP-3: background, literature
Target sequence in this assay (P08254 100-477, species assumed): as the sequence (P08254 100-477) above

MMP-7 = biological target: T5, MMP-7 (Homo sapiens, UniProt P09237); details: background, literature; cited from earlier work
T5 sequence (P09237 95-267): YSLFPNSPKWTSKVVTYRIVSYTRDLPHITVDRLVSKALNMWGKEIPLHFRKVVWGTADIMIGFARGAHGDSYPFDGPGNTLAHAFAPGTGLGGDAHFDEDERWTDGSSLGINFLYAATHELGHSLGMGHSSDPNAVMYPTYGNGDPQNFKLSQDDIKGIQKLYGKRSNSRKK

CCC[C@H](NC(=O)[C@H](CCC(=O)O)NC(=O)[C@@H](NC(=O)[C@@H]1CCCN1C(=O)[C@H](CCCCN)NC(=O)[C@@H]1CCCN1C(=O)[C@H](CCCNC(=N)N)NC(=O)Cc1cc(=O)oc2cc(OC)ccc12)C(C)C)C(=O)N[C@@H](Cc1c[nH]c2ccccc12)C(=O)N[C@@H](CCCNC(=N)N)C(=O)N[C@@H](CCCCNc1ccc([N+](=O)[O-])cc1[N+](=O)[O-])C(N)=O [NFF-3, Mca-Arg-Pro-Lys-Pro-Val-Glu-Nva-Trp-Arg-Lys(Dnp)-NH2] (Mca-RPKPVE[Nva]WRK(Dnp)-NH2)
hydrolysis by MMP-1 (MMP-1 [1]): not hydrolyzed | hydrolysis by MMP-2 (MMP-2 [2]): not hydrolyzed | site of hydrolysis by MMP-9 (MMP-9 [3]): multiple sites | hydrolysis by MMP-9 (MMP-9 [4]): very slowly hydrolyzed | site of hydrolysis by MMP-3 (MMP-3 [5]): Glu--Nva bond | solubility (Solubility of substrate): ≥ 250 µM | kcat /Km (MMP-3 [6]; MMP-3, 25° C.): 65,700 S^-1 M^-1 | kcat /Km (MMP-3 [6]; MMP-3, 37° C.): 218,000 S^-1 M^-1 | hydrolysis by MMP-3 (MMP-3 [6]; comparison of synthetic substrates): most rapidly hydrolyzed fluorogenic MMP-3 substrate yet described | hydrolyzed faster than NFF-2 by MMP-3 (MMP-3 [6]; rate relative to NFF-2): 3.7 times

Dnp-Pro-Cha-Gly-Cys(CH3)-His-Ala-Lys(Nma)-NH2
hydrolyzed by MMP-1 (MMP-1 [7]): hydrolyzed | hydrolyzed by MMP-9 (MMP-9 [8]): hydrolyzed

Dnp-Pro-Leu-Gly-Leu-Trp-Ala-D-Arg-NH2 (Dnp-PLGLWA[dR]-NH2; SMILES CC(C)C[C@H](NC(=O)CNC(=O)[C@H](CC(C)C)NC(=O)[C@@H]1CCCN1c1ccc([N+](=O)[O-])cc1[N+](=O)[O-])C(=O)N[C@@H](Cc1c[nH]c2ccccc12)C(=O)N[C@@H](C)C(=O)N[C@H](CCCNC(=N)N)C(N)=O) [literature fluorogenic MMP substrate]
hydrolyzed by MMP-1 (MMP-1 [7]): hydrolyzed | hydrolyzed by MMP-2 (MMP-2 [9]): hydrolyzed | kcat Km (MMP-3 [10]): 2,200 S^-1 M^-1 | hydrolyzed by MMP-3 (MMP-3 [10]): hydrolyzed | hydrolyzed by MMP-7 (MMP-7): hydrolyzed

Mca--Pro--Leu--Gly"--"Leu--Dpa--Ala--Arg--NH2
hydrolyzed by MMP-1 (MMP-1 [7]): hydrolyzed | hydrolyzed by MMP-2 (MMP-2 [9]): hydrolyzed | kcat Km (MMP-3 [10]): 23,000 S^-1 M^-1 | hydrolyzed by MMP-3 (MMP-3 [10]): hydrolyzed | hydrolyzed by MMP-7 (MMP-7): hydrolyzed
